{"source": "patent US10209241B2", "about": "“High throughput sensitization detection devices and methods” (Rutgers, The State University of New Jersey, priority 2011, dated 2019)", "test_system": "Mutz DCs with T-cells", "assay": "T-cell activation by sensitized dendritic cells in microfluidic well-trap device (Fluo-4 calcium flux, time lapse microscopy)", "format": "cell-based", "details": "Mutz DCs sensitized with PPD, Fluo-4 labeled T-cells in the chamber, time lapse microscopy (FIG. 5)", "from_the_text": "T cells are isolated from the peripheral blood mononuclear fraction by positive selection using CD3 microbeads and magnetic cell separator (Miltenyi Biotec Inc., Auburn, Calif.), following the manufacturer's instructions. The T cells are frozen in liquid nitrogen and thawed prior to use. The T-cells are labeled with a calcium sensitive fluorescent dye, Fluo-4. The present method measures the increase in calcium flux into T-cells, as they form immunological synapses with dendritic cells. For labeling, the T cells are suspended at a density of 1-2×10^6 cells/ml in the medium supplemented with the fluo4 dye diluted to a final concentration of 1 μM. The cells are incubated at 37° C. for 20 minutes, and then washed twice to remove the remaining dye in the medium. The labeled T cells are suspended in the fresh medium prior to loading in the microdevice.\nThe device is first primed with PBS. Any bubbles, remaining from the priming process, are removed by placing the device in a vacuum dessicater for 1-2 minutes. Once primed, the device is flushed with media. Dendritic cells (DCs) are introduced into the device from inlet 1, by means of a 2.5 μL pipette. Additional head is provided by topping off the pipette tip attached to the device to the required level. The set-screw valves may be employed to adjust the flow to allow the cells to slow down enough so they can settle. […]", "data": [{"smiles": "Nc1ccc(N)cc1", "note": "[PPD]", "values": [{"measurement": "T-cell clustering around dendritic cells and fluorescence (calcium flux) over time", "value": "Clustering accompanied by increase in fluorescence is observed"}]}]}
